Here are results for one compound from patent US7534769B2, “Compositions and methods for enhancing delivery of therapeutic agents to cells” (Canji, Inc., priority 1996, dated 2009).

In data set [1] the test system is bladder epithelium. As to the kind of experiment: rAd-βgal gene transfer to bladder epithelium in detergent formulations, Xgal staining score and gross pathology. On the procedure:
rAd-βgal was formulated in different detergents at their critical micellization concentration to evaluate efficiency of gene transfer to the bladder epithelium. Female rats (about 200 g b/w, Harlan Sprague Dawley) were anesthetized with isoflurane and received a single intravesical administration of rAd-βgal (1×10^11 PN/ml) in different detergent formulations (see Table I). Before instillation, bladders were flushed with PBS and then emptied. rAd-βgal was then instilled in a volume of 0.5 ml. The instilled solution was retained in the bladder for 45 minutes. The bladders were then flushed with PBS, and the animals were permitted to recover from the procedure. 48 hours after administration, the rats were sacrificed, the bladders harvested, and fixed in formalin. After fixation, the bladders were opened longitudinally so that the urothelium was exposed to the chromogen (Xgal), that is converted to a blue color, if reporter gene (β-galactosidase) expression is present. The luminal epithelial surface of the whole bladder was photographed an blue staining scored: + (minimal staining), ++ (moderate staining), +++ intense staining covering the whole bladder epithelial surface.
Briefly, in anaesthetized female rats rAd-βgal (1×10^11 PN/ml) was administered into the bladder via an intravesical catheter. rAd-βgal was formulated in different concentrations of Big CHAP (CALBIOCHEM®). A volume of 0.5 ml was injected and remained instilled in the bladder for 45 minutes. The animals were sacrificed 48 hours later, the bladder fixed in 4% formalin/glutaraldehyde, opened longitudinally, and the β-galactosidase enzyme activity measured using Xgal substrate. The intensity of blue staining correlates with the βgal-transgene expression.
Effects of higher recombinant adenovirus concentrations were also tested. Briefly, in anaesthetized female rats different concentrations of rAd-βgal, formulated in 7 mM Big CHAP (CALBIOCHEM®) were administered into the bladder via an intravesical catheter. The animals were sacrificed 48 hours later, the bladder fixed in 4% formalin/glutaraldehyde, opened longitudinally, and Xgal stained.

In data set [2] the test system is bladder, kidney and liver homogenates. As to the kind of experiment: ACNRB transgene expression by RT-PCR after intravesical administration. The format is in vivo, mouse. As to conditions: ACNRB 4×10^10 PN/mL in 22% (v/v) ethanol or 3 mM Big CHAP versus VPBS, 48 hours. As to the method: After the virus was retained in the bladder for 45 minutes, the animals were permitted to recover and void. […] Following amplification (30 cycles) RT-PCR products were separated on a 10% polyacrylamide gel, stained with ethidium bromide, and photographed. […] Untreated samples and bladder samples without the reverse transcriptase (RT) provided controls for contaminating DNA.
The instilled material was retained in the bladder for approximately 45 minutes, and animals were permitted to recover from the procedure. Mice were sacrificed 1, 2, 3, 4, 5, 6, 7, and 14 days after administration (N=4/time) for analysis. Bladders, livers, and kidneys were harvested and snap frozen in liquid nitrogen for subsequent analysis.
After the virus was retained in the bladder for 45 minutes, the animals were permitted to recover. […] Transgene expression was determined using RT-PCR. Tissues were rinsed in RNAse free water, homogenized, digested in Tri-Reagent (Molecular Research Center), and total cellular RNA extracted. […] RT-PCR was performed in the Perkin Elmer 9600 GeneAmp PCR System. Cycling conditions were 10 min at 65° C., 8 min at 50° C., 5 min at 95° C. 32 cycles of PCR were performed, each cycle consisting of 30 sec at 94° C., 30 sec at 58° C., and 30 sec at 72° C. The 32nd cycle included a 10 min elongation step at 72° C. to ensure full extension of incomplete DNA fragments.

The subject of a further data set is bladder tumor tissue. As to the kind of experiment: Gene transfer to BBN-induced bladder tumors (transitional cell carcinoma model). The format is in vivo, rat. To be noted: rAd-βgal 1×10^11 PN/ml in 4 mM Big CHAP compared to VPBS, 48 hr. As to the method:
Because initial investigations focused on animals with intact bladder epithelium, evaluated adenovirus mediated gene transfer in an animal model of transitional cell carcinoma was also studied. Tumors were induced in male Fisher rats by addition of 0.05% BBN in the drinking water for six months. rAd-βgal (1×10^11 PN/ml), formulated in 4 mM Big CHAP (CALBIOCHEM®) or VPBS was instilled into the bladder for 45 minutes by direct injection. β-gal expression was evaluated 48 hr after treatment. Consistent with earlier experiments using non-tumor bearing animals, gene transfer to tumor tissue was improved with the Big CHAP (CALBIOCHEM®) formulation compared to the VPBS formulation (FIG. 10).
Gene transfer of rAd carrying the p53 gene (rAd-p53) (Wills et al., Human Gene Therapy 5:1079-1088 (1994)) was also tested in this animal model of bladder cancer. Briefly, bladder tumors were induced in female Fisher rates (Charles River) by addition of 0.05% BBN (N-butyl-N-N(4-hydroxybutyl)nitrosamine) in the drinking water for three months. rAd-p53 (1×10^11 PN/ml) was formulated in 7 mM Big CHAP (CALBIOCHEM®). Under isoflurane anesthesia a catheter (24G) was inserted into the bladder for administration. rAd-p53 was instilled into the bladder for 45 minutes. The animals were then allowed to recover from anesthesia. […] No staining was detected in tumor tissue from untreated animals.

The test system of a further data set is pig urothelium. In words: rAd-βgal gene transfer in chronically catheterized adult pig bladder. Format: in vivo. On the procedure: To simulate volumes expected for clinical investigation, the 7 mM Big CHAP (CALBIOCHEM®) formulation was tested in a chronically catheterized adult pig model in collaboration with SPRI Drug Safety and Metabolism. rAd-βgal (1×10^11 PN/ml) was formulated in VPBS or 7 mM Big CHAP (CALBIOCHEM®). A volume of 50 ml was injected via the catheter into the bladder of the conscious animals. The instilled material was retained for 2 hr. The animals were sacrificed 48 hr later, and a central section of the bladder was harvested and stained for β-galactosidase expression.

In data set [3] the test system is bladder epithelium. As to the kind of experiment: Effect of Big CHAP sources, purified Big CHAP and impurities on rAd-βgal gene transfer to bladder epithelium. Format: in vivo, rat. As to conditions: Big CHAP at 6 mg/ml. On the procedure:
Alternate commercial sources of Big CHAP (BC) were tested for the ability to enhance rAd (recombinant adenovirus) mediated gene transfer and expression, essentially according to the method described above in Example 8.
The results are depicted in FIG. 17.
rAd-βgal was formulated in 30 mg/ml of the column chromatography purified material of both BCs and gene transfer to the bladder epithelium tested as described above.
Three impurities of BC (CALBIOCHEM®) were detected by TLC (FIG. 15) and isolated by column chromatography for gene transfer studies. Impurity I and a mixture of impurity II and impurity III were diluted in VPBS (0.6 mg/ml or 6 mg/ml) to test their efficiency in improving rAd mediated gene transfer to the bladder epithelium. […] Positive control formulation (BC, CALBIOCHEM®, upper panel, left), and the negative control formulations (BC—CALBIOCHEM®, column chromatography purified and BC—Sigma) were used at a concentration of 6 mg/ml (upper panel, right).
In this experiment, 10 mg/ml of BC (Sigma, FIG. 20 upper middle panel) was reconstituted with Impurity III (upper right panel), impurity II (lower left panel), or synthesized analog of impurity III (lower right panel). rAd-βgal, 1×10^11 PN/ml, was prepared in the spiked formulations and administered intravesically as described above.
Calbiochem Big CHAP was fractionated by column chromatography to obtain essentially pure impurities “1”, “2”, and “3” for biological testing as well as structural analysis.

For the next data set, the system named is bladder tissue. As to the kind of experiment: Cystitis evaluation of formulations in mice, bladder histopathology. To be noted: 80 μL intravesical, 7-day interval; 7 mM Big CHAP, 0.05 mM TRITON X-100 or 22% ethanol.

Molecules are shown by their SMILES.

Method for bladder tissue: The formulations were administered intravesically in a volume of 80 μL, and animals were observed over a 7-day interval. After sacrifice, bladders were paraffin-embedded, sectioned, and stained with hematoxylin and eosin for pathologic evaluation.

`C[C@H](CCC(=O)N(CCCNC(=O)[C@H](O)[C@@H](O)[C@H](O)[C@H](O)CO)CCCNC(=O)[C@H](O)[C@@H](O)[C@H](O)[C@H](O)CO)[C@H]1CC[C@H]2[C@@H]3[C@H](O)C[C@@H]4C[C@H](O)CC[C@]4(C)[C@H]3C[C@H](O)[C@]12C` [Big CHAP (CALBIOCHEM®), N,N,bis-(3-D-gluconamidopropyl)-cholamide]: the cystitis result is given as “induced cystitis in some of the animals tested” with bladder epithelium [1] (17.5 mM Big CHAP) and “minimal cystitis” with bladder epithelium [1] (Big CHAP formulation that enhanced gene transfer). Besides, the “gene transfer or expression” value with bladder epithelium [1] (17.5 mM Big CHAP) was “did not notably improve gene transfer or expression”. Besides, the gene transfer entry with bladder epithelium [1] (3.5-7 mM Big CHAP) is listed as “significantly improved gene transfer”. In addition, in the data set on bladder epithelium [1] (detergents at their critical micellization concentration), the “gene transfer to the bladder epithelium (Table I)” value is listed as “enhanced gene transfer dramatically”. In the data set on bladder epithelium [1] (rAd-βgal 1×10^11 PN/ml, different concentrations of Big CHAP), the “gene transfer to the epithelium, dependence on Big CHAP concentration” value is recorded as “concentration-dependent increase of gene transfer”. Besides, the “β-galactosidase expression, 3.5 mM compared with 7 mM formulation” value with bladder epithelium [1] (rat, in vivo) is “similar”. Moreover, in data set [2], the “ACNRB expression in bladder (RT-PCR)” value was “enhanced expression”. In addition, the “gene transfer to tumor tissue” value in the data set on bladder tumor tissue was “improved”. Also, in the data set on pig urothelium (7 mM Big CHAP), the “transduction of epithelial layers (histologic evaluation)” value is listed as “transduction of several epithelial layers”. Moreover, the “intensity of gene expression (β-galactosidase)” value with pig urothelium (rAd-βgal 1×10^11 PN/ml, 7 mM Big CHAP compared to VPBS, 50 ml, 2 hr, 48 hr) was “An increase in the intensity of gene expression”. For the same compound, the “rAd mediated gene transfer and expression” value with bladder epithelium [3] (listed as BC (CALBIOCHEM®)) is “did substantially enhance gene transfer and expression”; with bladder epithelium [3] (listed as Big CHAP from CALBIOCHEM®), “greater enhancement of gene transfer”. Moreover, the “macrophage infiltration into the bladder tissue / cystitis” value in the data set on bladder tissue is on record as “Only a slight macrophage infiltration”.
